In test [1] the target is METTL3/METTL14 (Homo sapiens) (UniProt Q86U44+Q9HCE5). The test can be described thus: Inhibition of METTL3/METTL14 (unknown origin) using SAM as substrate at 25 uM incubated for 360 mins by luminescence based assay relative to control. The class given is protein-complex assay.
The test system of another test is PC-9. The test can be described thus: Antiproliferative activity against human PC-9 cells assessed as inhibition of cell growth incubated for 72 hrs by CCK-8 assay. The class given is functional, cell-based. The conditions noted are these: PC-9, 72 h. On the technique in general: Formazan colour is commonly taken as a measure of viable cells.
For another test, the system named is NCI-H1975. The test can be described thus: Antiproliferative activity against human NCI-H1975 cells assessed as inhibition of cell growth incubated for 72 hrs by CCK-8 assay. The class given is functional, cell-based. The conditions noted are these: NCI-H1975, 72 h.
For a further test, the target named is METTL3/METTL14 (Homo sapiens, UniProt Q86U44). The test is described as follows: Inhibition of recombinant METTL3/METTL14 (unknown origin) by radioactivity based assay. The test is classed as protein-complex assay.
Sequence of METTL3/METTL14 (Q86U44 whole entry): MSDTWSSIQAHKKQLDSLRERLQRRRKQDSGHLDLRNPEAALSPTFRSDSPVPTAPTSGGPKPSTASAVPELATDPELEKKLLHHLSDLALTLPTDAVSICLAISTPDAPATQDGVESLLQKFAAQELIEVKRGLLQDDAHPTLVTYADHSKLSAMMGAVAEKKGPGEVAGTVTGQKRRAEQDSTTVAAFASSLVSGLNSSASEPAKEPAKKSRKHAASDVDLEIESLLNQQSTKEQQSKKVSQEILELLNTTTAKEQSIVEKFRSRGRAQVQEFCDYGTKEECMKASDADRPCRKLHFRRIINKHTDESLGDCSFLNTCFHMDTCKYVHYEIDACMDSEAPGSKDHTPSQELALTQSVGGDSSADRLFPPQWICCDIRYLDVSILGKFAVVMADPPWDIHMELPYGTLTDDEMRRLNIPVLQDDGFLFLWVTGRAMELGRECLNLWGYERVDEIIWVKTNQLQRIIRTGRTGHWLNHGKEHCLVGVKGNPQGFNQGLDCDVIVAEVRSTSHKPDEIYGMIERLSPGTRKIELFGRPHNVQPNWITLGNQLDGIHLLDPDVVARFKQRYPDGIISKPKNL
Sequence of METTL3/METTL14 (Q9HCE5 whole entry, further chain): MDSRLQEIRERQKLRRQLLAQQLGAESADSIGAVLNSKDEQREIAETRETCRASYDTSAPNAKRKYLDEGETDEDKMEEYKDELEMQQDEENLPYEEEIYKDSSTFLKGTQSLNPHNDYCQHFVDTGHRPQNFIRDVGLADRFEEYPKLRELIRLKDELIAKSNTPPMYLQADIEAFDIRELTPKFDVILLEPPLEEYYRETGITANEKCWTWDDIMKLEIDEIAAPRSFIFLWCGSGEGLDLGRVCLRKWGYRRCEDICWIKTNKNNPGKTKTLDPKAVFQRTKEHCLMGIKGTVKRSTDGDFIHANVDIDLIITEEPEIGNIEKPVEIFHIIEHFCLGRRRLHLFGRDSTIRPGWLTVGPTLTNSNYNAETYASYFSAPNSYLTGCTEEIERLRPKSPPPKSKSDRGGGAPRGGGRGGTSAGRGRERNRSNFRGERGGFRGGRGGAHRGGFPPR

Usually inhibition stands for the percentage by which the read-out fell short of the control. A lower inhibition goes with little suppression. `CC(=O)c1ccc(NC(=O)CSc2ncc(CO)n2Cc2ccc(F)cc2)cc1` came in with an inhibition in test [1] of 3.39%.
On to `CCn1c(N2CCCC(C(=O)Nc3ccc4[nH]c(=O)[nH]c4c3)C2)cc(=O)n(C)c1=O` (stereo not given), for which, in test [1], the inhibition is 36.7%.
`O=C(CCCn1c(SCC(=O)Nc2ccc(F)cc2)nc2c(sc3ccccc32)c1=O)NCCO` came in with an inhibition in test [1] of 6.31%.
For orientation: IC50 means the concentration at which inhibition is half-maximal. In turn, `CCOC(=O)CC(=O)CSc1nc2c(sc(=S)n2-c2ccc(C(=O)OCC)cc2)c2nc3ccccc3n12` yielded an inhibition in test [1] of 46.2%. Moreover, the figures for the IC50 with PC-9 and with NCI-H1975 were 213 µM and 197 µM, respectively.
As to `COc1ccc(NC(=O)CCn2ccc(=O)[nH]c2=O)cc1`, the inhibition in test [1] is 22.4%.
On to `Nc1ncnc2c1ncn2[C@@H]1O[C@H](C[C@@H](N)CC[C@H](N)C(=O)O)[C@@H](O)[C@H]1O` [SINEFUNGIN], for which the IC50 on METTL3/METTL14 was found to be 2.36 µM.
In the case of `CC(=O)Nc1ccc(C)cc1NC(=O)CCC1COc2ccccc2O1` (stereo not given), in test [1], the inhibition is 38.9%.
`O=C1c2ccc(Oc3cccc(Oc4ccc5c(c4)C(=O)N(c4ccc(O)cc4)C5=O)c3)cc2C(=O)N1c1ccc(O)cc1` gave an inhibition in test [1] of 65.6%. The IC50 in the test with PC-9 came to 216 µM; in the test on NCI-H1975 it was 180 µM.
In turn, `COc1ccc(-c2nc(C[S+]([O-])CC(=O)NCc3ccco3)c(C)o2)cc1` (stereo not given) had an inhibition in test [1] of 32.5%.
As to `O=C(CNC(=O)c1ccco1)N/N=C/c1cc(Br)cc(Br)c1OC(=O)c1cccc(F)c1`, the inhibition in test [1] came out at 35.3%.
For the compound `COc1ccc(C(=O)Nc2cccc(OCc3cc(=O)n4ccc(C)cc4c3)c2)cc1OC`, in test [1], the inhibition was found to be 25.1%.
Still for that read-out and setting: the same measure for `COc1ccc(NC(=O)Cn2cc(C(=O)c3ccc(C)cc3)c(=O)c3cc(OC)c(OC)cc32)cc1OC`: 24.1%; for `COc1ccc(NC(=O)CCn2ccc(=O)[nH]c2=O)c(O)c1`: 30.5%; for `CNC(=O)Cn1c(CO)cnc1SCC(=O)Nc1ccc(C(C)=O)cc1`: 31.1%.
`O=C(CCSc1nc(-c2ccco2)cc(C(F)(F)F)n1)NCc1ccco1` returned an inhibition in test [1] of 36.3%.
Still for that read-out and setting: the same measure for `CCn1c(SCC(=O)Nc2ccc(C)c(F)c2)nc2c3cc(OC)ccc3n(C)c2c1=O`: 32.1%.

The record behind these values is ChEMBL document CHEMBL5608251, “Virtual Screening and Molecular Docking: Discovering Novel METTL3 Inhibitors” (ACS Med Chem Lett, 2024).
